Reference: publication doi:10.1101/2020.05.05.078071v1 (biorxiv, 2020)

Columns and labels:
rNaV1.4 [1] = biological target: rNaV1.4 (Rattus norvegicus, UniProt P15390, F1579A); assay: whole-cell patch clamp, three pulse train; assay type: cell-based
rNaV1.4 [2] = biological target: rNaV1.4 (Rattus norvegicus, UniProt P15390); assay: whole-cell patch clamp, three pulse train; assay type: cell-based
rNaV1.4 (Rattus norvegicus, UniProt P15390), sequence (P15390 whole entry): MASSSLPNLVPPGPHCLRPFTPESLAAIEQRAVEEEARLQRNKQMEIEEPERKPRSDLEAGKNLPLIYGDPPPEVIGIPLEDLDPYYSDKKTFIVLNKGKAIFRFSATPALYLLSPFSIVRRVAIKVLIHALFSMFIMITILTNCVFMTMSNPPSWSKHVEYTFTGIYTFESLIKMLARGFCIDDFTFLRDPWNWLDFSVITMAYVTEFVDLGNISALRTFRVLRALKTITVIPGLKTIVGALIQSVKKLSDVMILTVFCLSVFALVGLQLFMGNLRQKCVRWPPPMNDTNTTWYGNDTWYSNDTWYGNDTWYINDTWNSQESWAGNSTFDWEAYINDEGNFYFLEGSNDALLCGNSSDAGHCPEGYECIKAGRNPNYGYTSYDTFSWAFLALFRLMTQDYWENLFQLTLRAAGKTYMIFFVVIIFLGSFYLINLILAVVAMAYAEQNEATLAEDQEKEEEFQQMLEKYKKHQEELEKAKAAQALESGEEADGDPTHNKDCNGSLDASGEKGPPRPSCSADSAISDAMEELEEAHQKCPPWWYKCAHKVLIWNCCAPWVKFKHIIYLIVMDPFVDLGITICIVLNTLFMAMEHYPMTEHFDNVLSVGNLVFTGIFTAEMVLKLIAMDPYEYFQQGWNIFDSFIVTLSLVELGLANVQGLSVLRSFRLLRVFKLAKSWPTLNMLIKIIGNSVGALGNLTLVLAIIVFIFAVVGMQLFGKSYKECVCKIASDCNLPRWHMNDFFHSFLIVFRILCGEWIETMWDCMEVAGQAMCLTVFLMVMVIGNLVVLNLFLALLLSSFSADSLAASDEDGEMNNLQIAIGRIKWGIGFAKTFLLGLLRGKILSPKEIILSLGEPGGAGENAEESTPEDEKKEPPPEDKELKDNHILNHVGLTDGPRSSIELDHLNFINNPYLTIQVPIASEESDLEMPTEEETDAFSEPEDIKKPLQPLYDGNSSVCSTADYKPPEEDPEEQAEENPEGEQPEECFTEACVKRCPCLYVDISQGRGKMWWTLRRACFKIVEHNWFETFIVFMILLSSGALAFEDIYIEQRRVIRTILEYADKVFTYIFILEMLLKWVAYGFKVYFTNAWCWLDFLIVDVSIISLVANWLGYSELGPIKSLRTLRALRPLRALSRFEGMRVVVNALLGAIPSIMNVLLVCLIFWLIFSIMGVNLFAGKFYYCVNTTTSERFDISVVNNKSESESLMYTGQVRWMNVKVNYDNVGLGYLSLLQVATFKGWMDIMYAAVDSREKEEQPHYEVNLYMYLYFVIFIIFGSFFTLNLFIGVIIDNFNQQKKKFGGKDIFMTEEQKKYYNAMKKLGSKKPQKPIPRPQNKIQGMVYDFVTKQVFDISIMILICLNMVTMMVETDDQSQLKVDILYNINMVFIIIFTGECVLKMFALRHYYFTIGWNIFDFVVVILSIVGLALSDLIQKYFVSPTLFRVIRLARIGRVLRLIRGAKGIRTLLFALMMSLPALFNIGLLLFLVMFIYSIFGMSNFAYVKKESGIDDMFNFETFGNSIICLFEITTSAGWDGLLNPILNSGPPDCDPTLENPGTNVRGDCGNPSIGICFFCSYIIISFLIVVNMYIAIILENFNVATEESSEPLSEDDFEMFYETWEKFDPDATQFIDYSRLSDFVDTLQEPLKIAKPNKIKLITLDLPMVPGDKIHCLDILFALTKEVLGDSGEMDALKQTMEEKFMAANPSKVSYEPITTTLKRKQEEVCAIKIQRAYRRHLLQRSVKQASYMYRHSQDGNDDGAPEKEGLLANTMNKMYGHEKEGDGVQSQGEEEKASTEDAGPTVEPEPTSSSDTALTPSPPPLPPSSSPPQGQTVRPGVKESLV

rNaV1.4 (Rattus norvegicus, UniProt P15390, F1579A), sequence (P15390 whole entry F1579A): as the sequence (P15390 whole entry) above, with F1579A counted along it

SMILES: Nc1nc2ccc(OC(F)(F)F)cc2s1 [riluzole]
- IC50 (rNaV1.4 [1]): 114 ± 20 µM
- IC50 (rNaV1.4 [2]): 3.98 ± 1.32 µM
